Measured values reported in patent US9845296B2 (dated 2017).

SMILES	melting point [°C]
CN(C)c1cc2[nH]c(C3CCCCC3)nc2cc1N	135 to 137
CN(C)c1cc2[nH]c(C3CCCCC3)nc2cc1NC(=O)c1ccc(OC(F)F)cc1	183 to 185
CN(C)c1cc2[nH]c(C3CCCCC3)nc2cc1NC(=O)c1ccc(F)cc1	196 to 197
COc1cccc(C(=O)Nc2cc3nc(C4CCCCC4)[nH]c3cc2N(C)C)c1OC	173 to 174
